Results from ChEMBL document CHEMBL3632522, “Novel 3,4-methylenedioxyde-6-X-benzaldehyde-thiosemicarbazones: Synthesis and antileishmanial effects against Leishmania amazonensis” (Eur J Med Chem, 2015).
Activity calls are given as the source filed them. No cut-off for these calls is given here.

How the values were obtained:
Leishmania amazonensis [1] = test: Antileishmanial activity against Leishmania amazonensis MHOM/BR/77/LTB0016 assessed as inhibition of parasite growth incubated for 72 hrs by MTT assay; type: functional, organism-based; conditions: for IC50: MHOM/BR/77/LTB0016, 72 h
Leishmania amazonensis [2] = test: Antileishmanial activity against Leishmania amazonensis Leishmania amazonensis MHOM/BR/77/LTB0016 intracellular amastigotes infected in BALB/c mouse macrophages incubated for 72 hrs by microscopy; type: functional, organism-based; conditions: MHOM/BR/77/LTB0016, 72 h
[3] = Selectivity index, ratio of LD50 for BALB/c mouse peritoneal macrophages to IC50 for Leishmania amazonensis MHOM/BR/77/LTB0016 intracellular amastigotes infected in BALB/c mouse peritoneal macrophages
[4] = Cytotoxicity against BALB/c mouse peritoneal macrophages infected with Leishmania amazonensis MHOM/BR/77/LTB0016 intracellular amastigotes assessed as cell viability at 12.5 to 100 uM after 72 hrs by resazurin staining based optical microscopy; conditions: peritoneal macrophage cell
[5] = Cytotoxicity against BALB/c mouse peritoneal macrophages assessed as cell viability after 72 hrs by resazurin assay; type: cell-based, Peritoneal macrophage cell; conditions: read-out: LD50
Leishmania amazonensis [6] = test: Antileishmanial activity against Leishmania amazonensis Leishmania amazonensis MHOM/BR/77/LTB0016 intracellular amastigotes infected in BALB/c mouse macrophages at 12.5 to 100 uM incubated for 72 hrs by optical microscopy; type: functional, organism-based

Structure (SMILES)	inhibition (Leishmania amazonensis [1])	IC50 (Leishmania amazonensis [1]) [µM]	IC50 (Leishmania amazonensis [2]) [µM]	Ratio LD50/IC50 [3]	Activity [4]	CC50 at 72 h [5] [µM]	Activity (Leishmania amazonensis [6])
NC(=S)N/N=C/c1ccc2c(c1)OCO2	Dose-dependent effect	79.7					
NC(=S)N/N=C/c1cc2c(cc1I)OCO2	Dose-dependent effect	20.7	22	>5.7	Non-toxic	> 125	Active
NC(=S)N/N=C/c1cc2c(cc1O)OCO2	Dose-dependent effect	53					
NC(=S)N/N=C/c1cc2c(cc1N)OCO2	Dose-dependent effect	119					
NC(=S)N/N=C/c1cc2c(cc1NC(=O)CCl)OCO2	Dose-dependent effect	256					
N#Cc1cc2c(cc1/C=N/NC(N)=S)OCO2	Dose-dependent effect	16.4	17	>7.4	Non-toxic	> 125	Active
NC(=S)N/N=C/c1cc2c(cc1[N+](=O)[O-])OCO2	Dose-dependent effect	271					
NC(=S)N/N=C/c1cc2c(cc1Cl)OCO2	Dose-dependent effect	244					
NC(=S)N/N=C/c1cc2c(cc1Br)OCO2	Dose-dependent effect	202					
N=C(N)c1ccc(OCCCCCOc2ccc(C(=N)N)cc2)cc1 [PENTAMIDINE]	Dose-dependent effect	4.8	1.9	4.5		8.5	
NC(=S)N/N=C/c1cc2c(cc1F)OCO2	Dose-dependent effect	197					
